# Results taken from patent publication US6500817B1, “Thiazolyl urea derivatives and their utilization as antiviral agents” (Bayer Aktiengesellschaft, priority 1999, dated 2002).
# Tested on: HSV-1 F
# Assay: anti-HSV screening test (cytopathogenic effect, fluorescein diacetate fluorescence readout) in Vero cells
# Assay type: cell-based
# Conditions: Human alphaherpesvirus 1; Vero cells infected with HSV-1 F, m.o.i. 0.0025; half-maximum fluorescence intensity in relation to the uninfected cell control; read-out: IC50 HSV-1 F/Vero
# Procedure: (§1) HSV (HSV-1 Walki, HSV-1F or HSV-2G) was replicated on Vero cells (ATCC CCL-81) under the following conditions: the cells were grown in M199 medium (5% fetal calf serum, 2 mM glutamine, 100 IU/ml penicillin, 100 μg/ml streptomycin) in cell culture bottles at 37° C. and 5% CO2. The cells were split 1:4 on each of two occasions each week. For the infection, the medium was removed, and the cells were washed with Hank's solution, detached with 0.05% trypsin, 0.02% EDTA (Seromed L2143) and incubated at a density of 4×10^5 cells per ml under the conditions mentioned above for 24 hours. The medium was then removed, and the virus solution was added at an m.o.i. of <0.05 in a volume of 2 ml per 175 cm^2 of surface area. After incubation under the conditions mentioned for one hour, the medium was made up to a volume of 50 ml per 175 cm^2 bottle. […] The virus was released by freezing (−80° C.) and thawing (37° C.) twice. The cell debris was removed by centrifugation (300 g, 10 min, 4° C.) and the supernatant was frozen in aliquots at −80° C.
# (§2) The anti-HSV effect was determined in a screening test system in 96-well microtitre plates with the assistance of various cell lines of neuronal, lymphoid and epithelial origin, such as, for example, Vero (African green monkey kidney cell line), MEF (murine embryonic fibroblasts), HELF (human embryonic fibroblasts), NT2 (human neuronal cell line) or Jurkat (human lymphoid T-cell line).
# (§3) The substances dissolved (50 mM) in DMSO (dimethyl sulphoxide) are investigated on microtitre plates (for example 96-well MTP) in final concentrations of 250-0.5 μM (micromolar) in duplicate determinations (4 substances/plate). For potent substances, the dilutions are continued over several plates as far as 0.5 pM (picomolar). Toxic and cytostatic effects of the substance are also recorded. After the appropriate dilutions of the substance (1:2) on the microtitre plate, a suspension of cells (1×10^4 cells per well) such as, for example, Vero cells in M199 (medium 199) with 5% fetal calf serum, 2 mM glutamine and optionally 100 IU/ml penicillin and 100 μg/ml streptomycin or MEF cells in EMEM (Eagle's minimum essential medium) with 10% fetal calf serum, 2 mM glutamine and optionally 100 IU/ml penicillin and 100 μg/ml streptomycin, or HELF cells in EMEM with 10% fetal calf serum, 2 mM glutamine and optionally 100 IU/ml penicillin and 100 μg/ml streptomycin, or NT2 and Jurkat cells in DMEM ([…] glucose plus pyridoxine) with 10% fetal calf serum, 2 mM glutamine, 1 mM sodium pyruvate, nonessential amino acids and optionally 100 IU/ml penicillin and 100 μg/ml streptomycin is put in each well, and the cells in the relevant wells are infected with an appropriate amount of virus (HSV-1 F or HSV-2 G with an m.o.i (multiplicity of infection) of 0.0025 for HELF, Vero and MEF cells and with an m.o.i of 0.1 for NT2 and Jurkat cells). The plates are then incubated at 37° C. in a CO2 incubator (5% CO2) for several days. […] The plates are initially evaluated optically using a microscope and then analysed with a fluorescent dye. For this purpose, the cell culture supernatant is aspirated out of all the wells of the MTP and charged with 200 μl of PBS washing solution.
row,SMILES,IC50 [nM]
1,"CCOc1ccc(NC(=O)N(CCN(C)C)c2nc(C)c(S(=O)(=O)NC)s2)cc1 [Example 2, 2-{[2-(Dimethylamino)ethyl][(4-ethoxyanilino)carbonyl]amino}-N,4-dimethyl-1,3-thiazole-5-sulphonamide]",200
2,CNS(=O)(=O)c1sc(N(C)C(=O)Nc2ccc(N3CCCC3)cc2)nc1C [Example 94],20
3,CNS(=O)(=O)c1sc(N(C)C(=O)Nc2ccc(-c3ccccc3)cc2)nc1C [Example 123],1

# Tested on: HSV-2 G
# Assay: as above
# Assay type: cell-based
# Conditions: Human alphaherpesvirus 2; Vero cells infected with HSV-2 G, m.o.i. 0.0025; half-maximum fluorescence intensity in relation to the uninfected cell control; read-out: IC50 HSV-2 G/Vero
# Procedure: as §1, §2, §3
row,SMILES,IC50 [nM]
1,"CCOc1ccc(NC(=O)N(CCN(C)C)c2nc(C)c(S(=O)(=O)NC)s2)cc1 [Example 2, 2-{[2-(Dimethylamino)ethyl][(4-ethoxyanilino)carbonyl]amino}-N,4-dimethyl-1,3-thiazole-5-sulphonamide]",1000
2,CNS(=O)(=O)c1sc(N(C)C(=O)Nc2ccc(N3CCCC3)cc2)nc1C [Example 94],50
3,CNS(=O)(=O)c1sc(N(C)C(=O)Nc2ccc(-c3ccccc3)cc2)nc1C [Example 123],5

# Tested on: not given
# Assay: not given
# Conditions: not given
row,SMILES,melting point
1,CC(=O)N1CCc2c(cccc2Oc2ccc(NC(=O)N(C)c3nc(Cl)c(S(=O)(=O)N(C)C)s3)cc2)C1,163 °C
2,CNS(=O)(=O)c1sc(N(Cc2ccccn2)C(=O)Nc2ccc(N3CCOCC3)cc2)nc1C,206 °C
3,CCOc1ccc(NC(=O)N(CCOC)c2nc(C)c(S(=O)(=O)NC)s2)cc1,159 °C
4,CCn1c(=O)oc2cc(NC(=O)N(C)c3nc(Cl)c(S(=O)(=O)N(C)C)s3)ccc21,232 °C
5,CCOc1ccc(NC(=O)N(Cc2cccnc2)c2nc(C)c(S(=O)(=O)NC)s2)cc1,212 °C
6,CN(C(=O)Nc1ccc(-n2ccnn2)cc1)c1nc(Cl)c(S(=O)(=O)N(C)C)s1,225 °C
7,CCOc1ccc(NC(=O)N(CCOc2ccccc2)c2nc(C)c(S(=O)(=O)NC)s2)cc1,158 °C
8,CCCN(C(=O)Nc1ccc(COC)cc1)c1nc(C)c(S(=O)(=O)NCC(F)(F)F)s1,143 °C
9,CCOc1ccc(NC(=O)N(C)c2nc(C)c(S(=O)(=O)N(C)C)s2)cc1,168 °C
10,Cc1nc(N(CC2CCCO2)C(=O)Nc2ccc(-c3ccccc3)cc2)sc1S(N)(=O)=O (centres unmarked),165 °C
11,CCOC(=O)N1CC2CCN(c3ccc(NC(=O)N(C)c4nc(S(=O)(=O)NC)c(C)s4)cc3)C2C1 (centres unmarked),153 to 154 °C
12,Cc1nc(N(C)C(=O)Nc2ccc(-n3cccc3)cc2)sc1S(=O)(=O)NC1CC1,194 °C
13,Cc1nc(N(C)C(=O)Nc2ccc(-c3ncon3)cc2)sc1S(=O)(=O)N(C)C,184 to 186 °C
14,CCCC(=O)Nc1cc(N2CCCC2)ccc1NC(=O)N(C)c1nc(C)c(S(=O)(=O)N(C)C)s1,164 °C
15,Cc1nc(N(C)C(=O)Nc2ccc(N3CCCC3=O)cc2)sc1S(=O)(=O)N(C)C,195 °C (dec.)
16,Cc1nc(N(C)C(=O)Nc2ccc(N3CC=CC3)cc2)sc1S(=O)(=O)N(C)C,185 °C
17,CNS(=O)(=O)c1sc(N(C)C(=O)Nc2ccc(N3CCCCC3)cc2)nc1C,157 to 160 °C (dec.)
18,Cc1nc(N(C)C(=O)Nc2ccc(N3CCCCC3)cc2)sc1S(=O)(=O)NC1CC1,198 °C
19,Cc1nc(NC(=O)Nc2ccc(-c3ccccc3)cc2)sc1S(=O)(=O)N(C)C,> 250 °C
20,CN(C(=O)Nc1ccc(OC(CF)CF)cc1)c1nc(Cl)c(S(=O)(=O)N(C)C)s1,164 °C

row,SMILES,melting point
1,CCCOc1ccc(NC(=O)N(CCOC)c2nc(CC)c(S(N)(=O)=O)s2)cc1,163 °C
2,CNS(=O)(=O)c1sc(N(CCCN2CCN(C)CC2)C(=O)Nc2ccc(-c3ccccc3)cc2)nc1C,188 °C
3,CNS(=O)(=O)c1sc(N(CCCN2CCCC2=O)C(=O)Nc2ccc(-c3ccccc3)cc2)nc1C,148 °C
4,CCCCOc1ccc(NC(=O)N(C)c2nc(Cl)c(S(=O)(=O)N(C)C)s2)cc1,140 °C
5,CCCOc1ccc(NC(=O)N(C)C2=CC(C)=C(S(N)(=O)=O)C2)cc1,200 °C
6,CNS(=O)(=O)c1sc(N(CCOC)C(=O)Nc2ccc(-c3ccccc3)cc2)nc1C,170 °C
7,Cc1nc(N(C)C(=O)Nc2ccc(N3CCCC3)cc2)sc1S(N)(=O)=O,209 °C
8,COCCN(C(=O)Nc1ccc(N2CCOCC2)cc1)c1nc(C)c(S(N)(=O)=O)s1,201 °C
9,CNS(=O)(=O)c1sc(N(C)C(=O)Nc2ccc(N3CCOCC3)cc2)nc1Cl,228 °C
10,CCOc1ccc(NC(=O)N(C)c2nc(Cl)c(S(=O)(=O)NC)s2)cc1,183 °C
11,CN(C)C(=O)Nc1ccc(NC(=O)N(C)c2nc(Cl)c(S(=O)(=O)N(C)C)s2)cc1,240 °C
12,CN(C(=O)Nc1ccc(N2CCOCC2)cc1)c1nc(Cl)c(S(=O)(=O)NCc2ccccc2)s1,201 °C
13,CN(C(=O)Nc1ccc(Oc2ccccc2)cc1)c1nc(Cl)c(S(=O)(=O)N(C)C)s1,127 °C
14,COC(=O)c1ccc(N(C)C(=O)N(C)c2nc(Cl)c(S(=O)(=O)N(C)C)s2)cc1,168 °C
15,CCc1nc(N(C)C(=O)Nc2ccc(N3CCOCC3)cc2)sc1S(=O)(=O)N(C)C,199 °C
16,CCOc1ccc(NC(=O)N(C)c2ncc(S(=O)(=O)NCc3ccccc3)s2)cc1,171 °C
17,CCOc1ccc(NC(=O)N(C)c2nc(C)c(S(=O)(=O)NC)s2)cc1,179 °C
18,CCCN(C(=O)Nc1ccc(N2CCOCC2)cc1)c1nc(C)c(S(=O)(=O)N(C)C)s1,161 °C
19,CCOc1ccc(NC(=O)N(Cc2cccnc2)c2nc(C)c(S(=O)(=O)N(C)C)s2)cc1,180 °C
20,CCOc1ccc(NC(=O)N(CC2COc3ccccc3O2)c2nc(C)c(S(=O)(=O)NC3CC3)s2)cc1 (centres unmarked),170 °C

row,SMILES,melting point
1,CCOc1ccc(NC(=O)N(CCc2ccccc2)c2nc(C)c(S(=O)(=O)NCc3ccccc3)s2)cc1,156 °C
2,CCOc1ccc(NC(=O)N(C)c2nc(C)c(S(=O)(=O)NCc3ccco3)s2)cc1,162 °C
3,CCOc1ccc(NC(=O)N(C)c2nc(C)c(S(=O)(=O)NCc3cccc(OC)c3)s2)cc1,134 °C
4,CCOc1ccc(NC(=O)N(C)c2nc(C)c(S(=O)(=O)NCc3ccccn3)s2)cc1,154 °C
5,CCOc1ccc(NC(=O)OCCN(C(=O)Nc2ccc(OCC)cc2)c2nc(C)c(S(=O)(=O)N(C)C)s2)cc1,177 °C
6,CCCN(C(=O)Nc1ccc(OCC)cc1)c1nc(C)c(S(=O)(=O)NCc2ccccc2)s1,145 °C
7,CCCN(C(=O)Nc1ccc(OCC)cc1)c1nc(C)c(S(=O)(=O)NC2CC2)s1,141 °C
8,CCOc1ccc(NC(=O)N(C)c2nc(C)c(S(=O)(=O)NCC3CC3)s2)cc1,164 °C
9,CCOc1ccc(NC(=O)N(CC2CCCN2CC)c2nc(C)c(S(=O)(=O)N(C)C)s2)cc1 (centres unmarked),158 °C
10,CN(C(=O)Nc1ccc(N2CCOCC2)cc1)c1nc(Cl)c(S(=O)(=O)N(C)C)s1 [3],197 °C
11,CN(C(=O)Nc1ccc(N2CCOCC2)cc1)c1nc(Cl)c(S(=O)(=O)N(C)C)s1 [9],210 °C
12,Cc1nc(N(C)C(=O)Nc2ccc(N3CCOCC3)cc2)sc1S(=O)(=O)N(C)C [67],171 °C
13,CCOc1ccc(NC(=O)N(CCCNC(=O)OC(C)(C)C)c2nc(C)c(S(=O)(=O)NCC(F)(F)F)s2)cc1 [135],161 °C
14,CCOc1ccc(NC(=O)N(CCCNC(=O)OC(C)(C)C)c2nc(C)c(S(=O)(=O)NCC(F)(F)F)s2)cc1 [136],150 °C
15,COCCN(C(=O)Nc1ccc(-c2ccccc2)cc1)c1nc(C)c(S(N)(=O)=O)s1 [151],167 °C
16,CC(=O)Nc1cc(N2CCCC2)ccc1NC(=O)N(C)c1nc(C)c(S(=O)(=O)N(C)C)s1 [168],185 to 187 °C (dec.)
17,CC(=O)Nc1cc(N2CCCC2)ccc1NC(=O)N(C)c1nc(C)c(S(=O)(=O)N(C)C)s1 [169],162 to 163 °C
18,COCCN(C(=O)Nc1ccc(-c2ccccc2)cc1)c1nc(C)c(S(N)(=O)=O)s1 [195],193 °C
19,CNS(=O)(=O)c1sc(N(C)C(=O)Nc2ccc(-c3ccccc3)cc2)nc1C [Example 123],210 °C
